Assay results from US8901127B2, “Pyridazin derivatives as antagonists of the bradykinin B1 receptor” (Boehringer Ingelheim International GmbH, priority 2010, dated 2014).

Target: T1, cynomolgus BK1-receptor (Macaca fascicularis, UniProt Q3BCU0)
T1 construct: expressed in transfected cells; host or cells: CHO cells
T1 sequence (Q3BCU0 1-352): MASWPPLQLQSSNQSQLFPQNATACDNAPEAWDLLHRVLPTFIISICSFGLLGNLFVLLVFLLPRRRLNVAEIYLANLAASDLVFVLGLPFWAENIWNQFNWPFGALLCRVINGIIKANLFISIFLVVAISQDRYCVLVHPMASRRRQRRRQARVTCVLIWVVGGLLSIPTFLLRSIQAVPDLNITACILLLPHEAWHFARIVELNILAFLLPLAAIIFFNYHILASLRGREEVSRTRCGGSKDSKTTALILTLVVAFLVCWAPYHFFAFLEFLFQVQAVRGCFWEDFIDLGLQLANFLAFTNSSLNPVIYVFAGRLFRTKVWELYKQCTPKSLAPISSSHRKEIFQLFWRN
Assay: cynoBK1 receptor binding assay
Settings: homogenate of CHO cells expressing cynomolgus BK1-receptor; radioligand 0.5 to 5.0 nM kallidin (DesArg10,Leu9), [3,4-Prolyl-3,43H(N)]; ambient temperature
Procedure: Description of the Method of Binding the cynoBK1-Receptor
CHO cells that express the cynomolgus BK1-receptor are cultivated in “HAM'S F-12 Medium”. The medium is removed from confluent cultures, the cells are washed with PBS buffer, scraped off or detached using Versene and isolated by centrifuging. Then the cells are homogenised in suspension, the homogenate is centrifuged and resuspended. After the protein content has been determined 200 μl of the homogenate (50 to 250 μg protein/assay) are incubated for 60-180 minutes at ambient temperature with 0.5 to 5.0 nM kallidin (DesArg10,Leu9), [3,4-Prolyl-3,43H(N)] and increasing concentrations of the test substance in a total volume of 250 μl. The incubation is stopped by rapid filtration through GF/B glass fibre filters that have been pre-treated with polyethyleneimine (0.3%). The radioactivity bound to the protein is measured with a TopCount NXT. The radioactivity bound in the presence of 1.0 μM kallidin (DesArg10) is defined as non-specific binding. The concentration binding curve may be analysed using computer-aided non-linear curve fitting to determine the corresponding Ki values for the test substance.

Ki: 5.6 nM
Structure (SMILES): O=C(N[C@@]1(C(=O)NCc2ncc(Nc3ccc(Cl)cc3C(F)(F)F)cc2F)CCOC1)c1cn[nH]c(=O)c1 [(5)]
